Key:
Assay in all cases: selective drug sensitivity score (sDSS, relative to normal bone marrow) (sDSS (score)); higher = more potent and effective on the cell line relative to normal bone marrow cells
Settings in all cases: 72 h
COG-LL-332h = test system: COG-LL-332h
PF-382 = test system: PF-382
COG-LL-317 = test system: COG-LL-317
RPMI-8402 = test system: RPMI-8402
HPB-ALL = test system: HPB-ALL
ALL-SIL = test system: ALL-SIL
MN-60 = test system: MN-60
LC4-1 = test system: LC4-1
PEER = test system: PEER
COG-LL-394h = test system: COG-LL-394h
P30-OHKUBO = test system: P30-OHKUBO
HAL-01 = test system: HAL-01
MOLT-14 = test system: MOLT-14
KASUMI-9 = test system: KASUMI-9
KASUMI-2 = test system: KASUMI-2
MOLT-16 = test system: MOLT-16
MHH-CALL-3 = test system: MHH-CALL-3
COG-LL-355h = test system: COG-LL-355h
TANOUE = test system: TANOUE
MHH-CALL-4 = test system: MHH-CALL-4
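Further: ALL cell lines in 384-well plates, five doses spanning 10,000-fold, each plate scaled between vehicle and 100 µmol/L benzalkonium chloride controls, sDSS an adapted area-under-curve metric.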

SMILES	selective drug sensitivity score (COG-LL-332h)	selective drug sensitivity score (PF-382)	selective drug sensitivity score (COG-LL-317)	selective drug sensitivity score (RPMI-8402)	selective drug sensitivity score (HPB-ALL)	selective drug sensitivity score (ALL-SIL)	selective drug sensitivity score (MN-60)	selective drug sensitivity score (LC4-1)	selective drug sensitivity score (PEER)	selective drug sensitivity score (COG-LL-394h)	selective drug sensitivity score (P30-OHKUBO)	selective drug sensitivity score (HAL-01)	selective drug sensitivity score (MOLT-14)	selective drug sensitivity score (KASUMI-9)	selective drug sensitivity score (KASUMI-2)	selective drug sensitivity score (MOLT-16)	selective drug sensitivity score (MHH-CALL-3)	selective drug sensitivity score (COG-LL-355h)	selective drug sensitivity score (TANOUE)	selective drug sensitivity score (MHH-CALL-4)
CO[C@H]1C[C@@H]2CC[C@@H](C)[C@@](O)(O2)C(=O)C(=O)N2CCCC[C@H]2C(=O)O[C@H]([C@H](C)C[C@@H]2CC[C@@H](OC(=O)C(C)(CO)CO)[C@H](OC)C2)CC(=O)[C@H](C)/C=C(\C)[C@@H](O)[C@@H](OC)C(=O)[C@H](C)C[C@H](C)/C=C/C=C/C=C/1C [Temsirolimus] (top concentration 100 nM)	8.46	7.46	3.96	-1.04	-4.44	2.76	2.46	3.46	7.16	-5.04	6.36	-0.74	-4.24	9.06	6.46	11.7	7.36	-2.54	-5.04	-3.54
O=C(c1cc(Cc2n[nH]c(=O)c3ccccc23)ccc1F)N1CCN(C(=O)C2CC2)CC1 [Olaparib] (top concentration 10000 nM)	4.98	-0.52	13	-0.02	-1.32	-0.02	-2.42	2.68	1.28	-1.32	2.98	4.88	10.4	4.98	4.78	9.08	21.9	3.38	-3.42	8.68
O=C(O)C(=O)O.[NH-][C@@H]1CCCC[C@H]1[NH-].[Pt+2] [Oxaliplatin] (top concentration 100000 nM)	14.9	-0.28	17.2	8.02	-0.78	3.42	-0.38	10.6	0.62	8.32	14.1	15.3	9.22	13.6	12.8	17.1	10.3	4.92	-6.98	12.1
Nc1ncn([C@H]2C[C@H](O)[C@@H](CO)O2)c(=O)n1 [Decitabine] (top concentration 10000 nM)	4.34	-1.16	14.9	1.24	-0.66	-3.06	-5.86	-0.06	2.94	-6.06	4.64	-1.76	0.44	-0.16	-2.26	5.94	2.34	-0.96	-6.06	0.54
CC(C)(C#N)c1cc(Cn2cncn2)cc(C(C)(C)C#N)c1 [Anastrozole] (top concentration 10000 nM)	0	0	0	0	0.2	0	0	0	0	0	0	0	0	0	0	0	0	0	0	0
Nc1nc(OCc2cc(Br)cs2)c2[nH]cnc2n1 [Lomeguatrib] (top concentration 10000 nM)	0	0	0	0	0.1	0	0	0.8	0	0	0	0	0	0	0	0	0	1	0	0
CCOC(=O)C1=CCCC[C@H]1S(=O)(=O)Nc1ccc(F)cc1Cl [Resatorvid] (top concentration 10000 nM)	0	0	0	0	0	0	0	0	0	0	0	0	0	0	0	0	0	0	0	0
CS(=O)(=O)N1CCN(Cc2cc3nc(-c4cccc5[nH]ncc45)nc(N4CCOCC4)c3s2)CC1 [Pictilisib] (top concentration 10000 nM)	0.46	6.26	-0.94	6.26	-0.04	4.56	2.96	0.16	-2.24	-0.74	13	14.4	-2.04	10.1	8.46	4.16	10.6	12	-5.84	9.26
Cc1cc(OCc2nnc(SC3CCCC3)n2-c2cccnc2)ccc1-c1ccc(S(C)(=O)=O)cc1 [NMS-873] (top concentration 10000 nM)	5.86	11.8	0.16	21.3	6.26	8.96	12.1	4.76	22.9	14.6	4.66	1.06	7.16	1.26	4.26	17.6	6.06	4.56	19.4	6.96
CNC(=O)CN1CCC(Oc2cc3c(Nc4cccc(Cl)c4F)ncnc3cc2OC)CC1 [Sapitinib] (top concentration 1000 nM)	0	0	0	0	0	0	0	0	0	0	0	0	0	0	0	0	0.1	0	0	0
Nc1nc(F)nc2c1ncn2[C@@H]1O[C@H](CO)[C@@H](O)[C@@H]1O [Fludarabine] (top concentration 10000 nM)	0.6	-6.6	3.3	-3.6	0.3	3	-4.5	6	-9.3	-10.6	7.7	4	4.3	6	5.3	2.6	7.5	5.1	-10.3	8.3
COc1cc([C@@H]2c3cc4c(cc3[C@@H](O[C@@H]3O[C@@H]5CO[C@@H](c6cccs6)O[C@H]5[C@H](O)[C@H]3O)[C@H]3COC(=O)[C@H]23)OCO4)cc(OC)c1O [Teniposide] (top concentration 10000 nM)	0	0	0	0	0	0	0	0	0	0	0	0	0	0	2.4	0	0	0	0	0
Nc1ccn([C@@H]2O[C@H](CO)[C@@H](O)[C@@H]2O)c(=O)n1 [Cytarabine] (top concentration 10000 nM)	25.5	19.1	27.2	18.6	2.7	15.1	1.3	21	12.2	-10	26.2	21.8	25.6	22.7	16.6	22.5	15.8	4.9	-8.9	5.4
Cc1sc2c(c1C)C(c1ccc(Cl)cc1)=N[C@@H](CC(=O)Nc1ccc(O)cc1)c1nnc(C)n1-2 [Birabresib] (top concentration 10000 nM)	-4.28	3.42	9.12	3.72	-0.08	0.02	6.72	4.92	-0.08	-0.08	7.22	-0.78	1.72	13.1	-9.68	7.92	14	2.42	-4.78	6.02
COC(=O)c1ccc2c(c1)NC(=O)/C2=C(\Nc1ccc(N(C)C(=O)CN2CCN(C)CC2)cc1)c1ccccc1 [Nintedanib] (top concentration 10000 nM)	4.44	5.04	-1.76	1.14	0.64	14.3	-6.36	-4.36	5.94	2.14	-1.46	3.34	1.64	-1.26	-6.36	-2.26	-0.26	-0.16	-6.36	-1.66
CCc1c2c(nc3ccc(O)cc13)-c1cc3c(c(=O)n1C2)COC(=O)[C@]3(O)CC [SN-38] (top concentration 10000 nM)	27.6	24.8	27.6	25.4	11.2	27.3	7.28	27.1	12.8	13.8	24.6	21.8	28	23.5	18.8	28.2	16.2	14.7	-5.52	19.7
CCN(CC)C(=S)SSC(=S)N(CC)CC [Disulfiram(+CuCl2)] (top concentration 50000 nM)	-0.52	-0.02	-2.12	-2.12	15.8	-2.12	-2.12	7.38	-2.12	-1.02	0.78	16.3	-2.02	2.28	5.18	13.9	1.78	1.48	-1.62	3.38
CCn1c(-c2nonc2N)nc2cnc(Oc3cccc(NC(=O)c4ccc(OCCN5CCOCC5)cc4)c3)cc21 (top concentration 10000 nM)	11	1.66	7.46	7.66	-1.14	4.06	-3.54	17	16.6	1.56	10.9	9.96	2.46	11.6	14.3	12.1	-2.34	-2.34	-5.44	10.4

From the supplement of paper PMC8967900
